{"source": "ChEMBL document CHEMBL1201862", "about": "“PubChem BioAssay data set” (2004)", "key": {"[1]": {"target": "T1, Eukaryotic translation initiation factor 2-alpha kinase 3 (Homo sapiens, UniProt Q9NZJ5)", "T1 sequence (Q9NZJ5 whole entry)": "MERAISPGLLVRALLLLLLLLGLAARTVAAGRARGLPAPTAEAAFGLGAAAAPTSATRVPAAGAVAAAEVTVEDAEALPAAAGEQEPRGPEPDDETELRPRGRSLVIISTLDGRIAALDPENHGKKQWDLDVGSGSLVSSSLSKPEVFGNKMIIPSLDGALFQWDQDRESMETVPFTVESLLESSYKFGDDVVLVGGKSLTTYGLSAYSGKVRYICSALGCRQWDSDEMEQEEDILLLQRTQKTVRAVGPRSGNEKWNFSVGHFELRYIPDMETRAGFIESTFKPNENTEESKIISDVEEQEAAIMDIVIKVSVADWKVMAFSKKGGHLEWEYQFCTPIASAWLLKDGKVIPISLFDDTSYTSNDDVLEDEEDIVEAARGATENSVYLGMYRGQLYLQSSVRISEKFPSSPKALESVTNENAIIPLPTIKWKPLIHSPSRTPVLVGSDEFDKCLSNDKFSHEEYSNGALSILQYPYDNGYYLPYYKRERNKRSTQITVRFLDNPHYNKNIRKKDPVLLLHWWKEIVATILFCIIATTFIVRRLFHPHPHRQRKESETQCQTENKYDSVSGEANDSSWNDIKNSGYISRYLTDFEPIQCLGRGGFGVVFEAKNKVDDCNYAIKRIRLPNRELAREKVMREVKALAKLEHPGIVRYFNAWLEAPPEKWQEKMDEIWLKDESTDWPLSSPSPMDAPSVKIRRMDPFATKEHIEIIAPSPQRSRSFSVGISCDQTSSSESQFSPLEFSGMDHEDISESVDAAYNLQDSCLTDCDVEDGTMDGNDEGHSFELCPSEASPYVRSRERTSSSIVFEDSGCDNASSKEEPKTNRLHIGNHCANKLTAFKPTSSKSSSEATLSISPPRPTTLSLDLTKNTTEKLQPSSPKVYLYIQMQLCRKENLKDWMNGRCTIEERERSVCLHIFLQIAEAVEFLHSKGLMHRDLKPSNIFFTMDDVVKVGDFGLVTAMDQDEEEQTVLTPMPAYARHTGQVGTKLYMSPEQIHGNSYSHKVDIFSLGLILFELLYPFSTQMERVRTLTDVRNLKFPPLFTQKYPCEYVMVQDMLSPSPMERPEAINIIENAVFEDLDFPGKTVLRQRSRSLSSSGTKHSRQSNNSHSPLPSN", "assay": "Dose response cell-based high-throughput screening assay to measure PERK inhibition. [Related pubchem assays: 1416 ]", "format": "functional"}, "Caspase-6": {"target": "T2, Caspase-6 (Homo sapiens, UniProt P55212)", "T2 sequence (P55212 whole entry)": "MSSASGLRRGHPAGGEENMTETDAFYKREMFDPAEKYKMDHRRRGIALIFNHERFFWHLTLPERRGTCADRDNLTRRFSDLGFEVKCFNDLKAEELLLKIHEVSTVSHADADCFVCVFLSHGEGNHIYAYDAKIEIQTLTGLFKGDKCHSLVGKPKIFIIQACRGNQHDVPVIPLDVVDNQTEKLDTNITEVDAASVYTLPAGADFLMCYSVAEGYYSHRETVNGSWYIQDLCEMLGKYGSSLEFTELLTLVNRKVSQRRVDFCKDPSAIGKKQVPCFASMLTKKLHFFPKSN", "assay": "human caspase-6 inhibitors, dose response, biochemical, VEID-R110 fluorescence, cherry-pick (AID 720632)"}, "[2]": {"target": "T1, Eukaryotic translation initiation factor 2-alpha kinase 3", "assay": "Counterscreen assay for PERK inhibitors: Dose response cell-based high throughput screening assay to measure inhibition of PERK at 6 hours. [Related pubchem assays: 1522, 1416 ]", "format": "functional"}, "[3]": {"target": "Polyadenylate-binding protein 1 (Homo sapiens, UniProt P11940)", "sequence (P11940 whole entry)": "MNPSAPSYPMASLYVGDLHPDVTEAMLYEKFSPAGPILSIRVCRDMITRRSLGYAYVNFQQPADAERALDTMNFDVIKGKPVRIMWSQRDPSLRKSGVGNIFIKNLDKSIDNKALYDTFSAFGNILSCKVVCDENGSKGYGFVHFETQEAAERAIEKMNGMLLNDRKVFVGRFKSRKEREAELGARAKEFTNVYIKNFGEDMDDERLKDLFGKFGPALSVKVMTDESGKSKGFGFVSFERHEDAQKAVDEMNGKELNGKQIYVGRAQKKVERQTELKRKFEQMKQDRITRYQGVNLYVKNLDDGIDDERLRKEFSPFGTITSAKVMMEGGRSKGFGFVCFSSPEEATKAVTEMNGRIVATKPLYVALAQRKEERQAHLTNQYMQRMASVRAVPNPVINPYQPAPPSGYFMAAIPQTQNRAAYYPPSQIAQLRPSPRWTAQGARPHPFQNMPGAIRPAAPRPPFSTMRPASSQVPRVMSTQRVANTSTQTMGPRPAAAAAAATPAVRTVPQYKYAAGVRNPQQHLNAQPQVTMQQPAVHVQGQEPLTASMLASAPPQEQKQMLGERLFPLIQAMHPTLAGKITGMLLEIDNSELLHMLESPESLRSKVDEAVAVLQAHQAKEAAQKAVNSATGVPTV", "assay": "PABP poly(A) RNA binding inhibitors, primary screen, biochemical, fluorescence polarization, uHTS (AID 2014)"}, "[4]": {"target": "Eukaryotic translation initiation factor 4H (Homo sapiens, UniProt Q15056)", "assay": "human eIF4H binding inhibitors, primary screen, translation initiation inhibitor project, biochemical, uHTS, fluorescence polarization (AID 2012)"}, "[5]": {"target": "Guanyl-specific ribonuclease T1 (Aspergillus oryzae (strain ATCC 42149 / RIB 40), UniProt P00651)", "sequence (P00651 whole entry)": "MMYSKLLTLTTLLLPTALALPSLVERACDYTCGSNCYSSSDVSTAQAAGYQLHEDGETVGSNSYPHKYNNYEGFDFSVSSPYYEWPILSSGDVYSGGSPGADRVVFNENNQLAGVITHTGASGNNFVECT", "assay": "RNase T1 inhibitors, dose response, counter-screen for TPT1 inhibitor project, biochemical, fluorescence polarization, 1536-well (AID 2167)"}, "[6]": {"target": "Glutathione-S-transferase (Schistosoma japonicum, UniProt Q26513)", "sequence (Q26513 whole entry)": "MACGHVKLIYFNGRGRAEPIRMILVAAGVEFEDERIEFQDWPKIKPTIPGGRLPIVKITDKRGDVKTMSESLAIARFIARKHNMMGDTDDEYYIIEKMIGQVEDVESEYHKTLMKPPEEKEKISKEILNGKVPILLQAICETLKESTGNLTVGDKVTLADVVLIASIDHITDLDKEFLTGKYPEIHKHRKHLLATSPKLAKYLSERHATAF", "assay": "biotin-GST/anti-GST TR-FRET signal inhibitors, dose response, artefact control for Vif-APOBEC3G degradation inhibitor project, biochemical (AID 1117362)", "format": "functional"}, "[7]": {"assay": "THP-1 cell cytotoxicity, dose response, cytotoxicity control for Vif-APOBEC3G degradation inhibitor project, THP-1 cells (AID 1117359)", "format": "functional", "settings": "Human immunodeficiency virus 1, THP-1"}, "[8]": {"target": "Likely tRNA 2'-phosphotransferase (Candida albicans (strain SC5314 / ATCC MYA-2876) (Yeast), UniProt Q5A7N4)", "sequence (Q5A7N4 whole entry)": "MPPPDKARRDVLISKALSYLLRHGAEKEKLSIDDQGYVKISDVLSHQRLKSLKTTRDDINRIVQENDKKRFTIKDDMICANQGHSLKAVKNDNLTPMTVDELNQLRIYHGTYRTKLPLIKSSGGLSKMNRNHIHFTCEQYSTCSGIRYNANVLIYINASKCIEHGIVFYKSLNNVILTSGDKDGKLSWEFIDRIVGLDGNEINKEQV", "assay": "TPT1 tRNA phosphotransferase inhibitors, dose response, biochemical, fluorescence polarization (AID 2160)"}, "Cytochrome P450 2D6": {"target": "Cytochrome P450 2D6 (Homo sapiens, UniProt P10635)", "sequence (P10635 whole entry)": "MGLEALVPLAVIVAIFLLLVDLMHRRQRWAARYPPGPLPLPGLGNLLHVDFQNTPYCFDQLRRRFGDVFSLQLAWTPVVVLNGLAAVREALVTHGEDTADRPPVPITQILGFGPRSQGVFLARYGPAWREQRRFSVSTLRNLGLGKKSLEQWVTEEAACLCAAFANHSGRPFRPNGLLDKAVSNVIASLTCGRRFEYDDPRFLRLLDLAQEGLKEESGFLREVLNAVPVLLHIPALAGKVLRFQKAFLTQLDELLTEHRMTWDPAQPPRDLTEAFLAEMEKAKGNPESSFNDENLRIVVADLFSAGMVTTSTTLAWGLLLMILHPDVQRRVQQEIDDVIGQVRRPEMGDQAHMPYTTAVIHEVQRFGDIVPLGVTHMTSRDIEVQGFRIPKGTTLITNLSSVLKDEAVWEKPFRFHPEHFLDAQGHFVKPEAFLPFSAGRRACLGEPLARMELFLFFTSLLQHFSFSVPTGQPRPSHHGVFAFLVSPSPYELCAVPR", "assay": "qHTS Assay for Inhibitors and Substrates of Cytochrome P450 2D6. [Related pubchem assays: 410 ]", "format": "ADME", "settings": "read-out: Potency"}}, "note": "Calls of active or inactive are those of the source.", "data": [{"molecule": "CCOC(=O)c1sc(NC(=O)C2C3C=CC(C3)C2C(=O)O)nc1C", "note": "(stereo not given)", "values": [{"measurement": "EC50", "setting": "[1]", "result": "> 55.7 µM (not active)"}, {"measurement": "AC50", "setting": "Caspase-6", "result": "11.1 µM (active)"}, {"measurement": "EC50", "setting": "[2]", "result": "> 55.7 µM (not active)"}]}, {"molecule": "COc1cc(C)cc(C(=O)O)c1C1=C(O)C(=O)c2c(O)cccc2C1=O", "values": [{"measurement": "IC50", "setting": "[3]", "result": "5.41 µM (active)"}, {"measurement": "IC50", "setting": "[4]", "result": "5.43 µM (active)"}]}, {"molecule": "CCN1CCN(c2cc(N3CCN(C(=O)c4ccco4)CC3)c3c4c(onc24)-c2ccccc2C3=O)CC1", "values": [{"measurement": "IC50", "setting": "[5]", "result": "7.8 µM (active)"}, {"measurement": "IC50", "setting": "[6]", "result": "> 100 µM (active)"}, {"measurement": "CC50", "setting": "[7]", "result": "> 40 µM (active)"}, {"measurement": "IC50", "setting": "[8]", "result": "10.7 µM (not active)"}]}, {"molecule": "COc1ccccc1CNc1cc(-c2ccccc2C(F)(F)F)ncn1", "values": [{"measurement": "AC50", "setting": "Cytochrome P450 2D6", "result": "39.8 µM (inconclusive)"}]}]}
